Laboratory results published in US6979682B2, “Platelet-activating factor antagonist inhibition of angiogenesis and tumor growth induced by basic fibroblast” (Board of Supervisors of Louisiana State University and …, priority 2001, dated 2005).

Key:
[1] = tested on: human 201T lung adenocarcinoma cells (orthotopic xenografts); test: orthotopic 201T xenografts in nude mice, mediastinal block weight; assay type: in vivo, NCr athymic nude mice; settings: 60 mg/kg at days 2, 4, 6, 8, 10, 12, sacrifice day 56
Description: Pathogen-free 4 to 6 week-old male NCr athymic nude mice (Taconic, Germantown, N.Y.) were housed in sterilized, filter-topped cages kept in laminar flow isolators (Forma Scientific, Marietta, Ohio), and fed autoclaved food and water ad libitum. Four animals were housed in each cage. Mice were acclimated to the vivarium for one week prior to their use in study protocols. All procedures involving the mice were performed under sterile conditions in a laminar flow hood (Forma Scientific). All studies were approved by the institutional animal care and use committee.
Human PC-3 prostate cancer cells (2×10^6 cells; American Type Culture Collection CRL-1435) were inoculated subcutanteously into the flanks of nude mice in 0.1 ml HBSS (Hank's balanced salt solution) (Life Technologies). For implantation of orthotopic 201T cells, animals were fully anesthetized in a Harvard small animal anesthesia chamber using nebulized Metafane (Pitman Moore, Inc., Washington Crossing, N.J.). […] The needle was advanced through the chest wall into the lung tissue, and the tumor cell inoculum of 2×10^6 cells was then dispersed in a final volume of 0.1 ml HBSS/Matrigel (1:1 ratio). […] For tumors implanted subcutaneously, tumors were measured in a blind fashion with dial calipers, and the volume was calculated using the formula ½*π(W*L*H). […]

PC-3 cells = test: in vitro cell growth assay, [3H]thymidine incorporation, PC-3; assay type: cell-based, human
Description: The human prostatic carcinoma cell line PC-3 was grown in RPMI 1640 (Life Technologies, Grand Island, […].) supplemented with 10% fetal bovine serum (“FBS”, Life Technologies). The human cell line 201T was established from a poorly differentiated lung adenocarcinoma, as previously described using the method of J. M. Siegfried et al., “Secretion of autocrine growth factors by cultured lung tumors: effects on neoplastic lung epithelial cells,” Lung Cancer, vol. 4, pp. 205–209 (1988). See also J. P. Hamide et al., “Percutaneous implantation of non-small cell lung carcinoma: technique and observations,” Academ. Radiolo., vol. 4, pp. 629–633 (1997). The cell line was grown in a medium conditioned for 48 hours by the cell line A549 (ATCC CCL-185) containing 1% FBS (HyClone Laboratories, Logan, Utah) as previously described in J. M. Siegfried, “Culture of primary lung tumors using medium conditioned by a lung carcinoma cell line,” J. Cell. Biochem., vol. 41, pp. 91–95 (1988). This medium is referred to as CM+1% FBS.
PC-3 cells were exposed to 0, 0.1, 1, 2.5, 5, and 10 μM BN-50730 in RPMI medium supplemented with 10% FBS and [^3H]thymidine (Amersham Life Science, Arlington Heights, Ill.). […] PC-3 and 201T cells were also exposed to 10 μM BN-50730 for 24, 48, 72 and 144 hours, and cell growth assessed as above. […]

[2] = tested on: human umbilical vein endothelial cells (HUVEC); test: HUVEC proliferation, [3H]thymidine incorporation; assay type: cell-based
Description: Human umbilical vein endothelial cells (“HUVEC”) were propagated in one of three growth media depending on the experimental conditions. HUVEC were maintained in endothelial basal medium (“EBM-2”) (Clonetics, Walkersville, Md.) supplemented with 2% FBS (Clonetics). HUVEC were also grown in endothelial growth medium (“EGM”) (Clonetics), which contained 3 mg/ml (protein content) bovine brain extract, 10 ng/ml EGF ([…]), 1 μg/ml hydrocortisone, 2% FBS, gentamicin, and amphotericin-B. HUVEC were likewise grown in EGM-2, supplemented with VEGF ([…]), R^3-IGF-1 (long recombinant-3 insulin-like growth factor-1), ascorbic acid, heparin, 2% FBS, EGF, bFGF, gentamicin, and amphotericin-B.
Based on the above in vitro tumor data, the effect of BN-50730 on tumor growth is believed to result from inhibition of angiogenesis. To test this theory, the effect of BN-50730 on angiogenesis of HUVEC cells was measured using two growth media designed to induce rapid proliferation, EGM or EGM-2. HUVEC growth was measured by [^3H]thymidine incorporation into DNA.
As many tumors are known to produce angiogenesis-inducing factors, an experiment was conducted to test for increased proliferation of HUVEC cells exposed to 201T-conditioned medium. 201T cells were allowed to condition basal medium (EBM supplemented with 2% FBS) for 48 hr. […] EGM-2 is a medium containing the growth factors bFGF, VEGF, IGF-1, and EGF.
To characterize the inhibitory effects of BN-50730 on HUVEC proliferation, a series of growth assays was performed in which growth factors were either added or omitted singly from the growth medium in the presence or absence of BN-50730. The cells were grown in a medium supplemented with [^3H]thymidine, in either the presence or absence of BN-50730. Cells that proliferate will incorporate [^3H]thymidine into their DNA. In the first experiment, individual growth factors VEGF, IGF-1, bFGF, or EGF were added to EBM-2 supplemented with 2% FBS. […] This experiment supports the hypothesis that different cellular mechanisms use different peptide growth factors.
In a subsequent experiment, mixtures of the growth factors were analyzed, with only one growth factor absent from the medium, and each of the other three were present, in the presence or absence of 10 μM BN-50730. […] However, no reduction was seen when bFGF was absent.

COc1ccc(NC(=O)N2CCc3c(sc4c3C(c3ccccc3Cl)=NCc3nnc(C)n3-4)C2)cc1 [BN-50730, tetrahydro-4,7,8,10 methyl-1 (chloro-2 phenyl)-6 (methoxy-4 phenyl-carbomoyl)-9 pyrido [4′,3′-4,5] thieno [3,2-f] triazolo-1,2,4[4,3-α]diazepine-1,4]
mediastinal block weight, placebo-treated vs LAU-8080-treated ([1]; p=0.011, Student's t-test): significantly larger in placebo-treated animals
mediastinal weight vs control litter mates without tumor cell implantation ([1]; p=0.800, Student's t-test): the same as for control liter mates
PC-3 cell proliferation, time course (PC-3 cells; 10 μM at 1, 2, 3 or 6 days, p=0.556, F-test): no effect
PC-3 cell proliferation, concentration response (PC-3 cells; 0.01, 0.1, 1, 2.5, 5, 10 μM for 4 days, p=0.529 for 10 μM): not affected
HUVEC growth in EGM or EGM-2 medium ([2]; 5 μM, both growth conditions, p=0.001, Student's t-test): significantly reduced the growth of HUVEC
stimulation of HUVEC growth in 201T-conditioned medium or EGM-2 medium ([2]; 5 μM, either medium): inhibited
HUVEC growth in medium containing EGF as single growth factor ([2]; 10 μM, EBM-2 + 2% FBS + EGF): No difference
HUVEC growth in medium containing IGF-1 as single growth factor ([2]; 10 μM, EBM-2 + 2% FBS + IGF-1): No difference
HUVEC growth in medium containing VEGF as single growth factor ([2]; 10 μM, EBM-2 + 2% FBS + VEGF, p=0.036): small, but significant
HUVEC growth in medium containing bFGF as single growth factor ([2]; 10 μM, EBM-2 + 2% FBS + bFGF, p=0.0002): larger reduction
HUVEC growth in medium with bFGF absent ([2]; 10 μM, VEGF, IGF-1 and EGF present): no reduction
HUVEC growth in medium lacking only VEGF, IGF-1 or EGF ([2]; 10 μM, other three growth factors present): reduction in growth
